{
  "source": "patent US20060222695A1",
  "about": "“Deoxycholic acid liposome-based dermatological topical preparation” (priority 2005, published 2006)",
  "origin": "cited, not measured here",
  "test_system": "cell cultures and tissue specimen",
  "details": "similar to the effects of laboratory detergents",
  "data": [
    {"smiles": "C[C@H](CCC(=O)O)[C@H]1CC[C@H]2[C@@H]3CC[C@@H]4C[C@H](O)CC[C@]4(C)[C@H]3C[C@H](O)[C@]12C", "note": "[Deoxycholic acid]", "values": [
      {"measurement": "effect on cells and fat tissue", "result": "loss of cell viability, cell membrane lysis and disruption of fat architecture"}
    ]}
  ]
}
